According to PMC9090415, “Discovery of small molecule inhibitors of Plasmodium falciparum apicoplast DNA polymerase” (Journal of Enzyme Inhibition and Medicinal Chemistry, 2022):

Target: T1, bacteriophage T4 DNA polymerase (Enterobacteria phage T4, UniProt P04415)
T1 construct: made in house
T1 sequence (P04415 1-898): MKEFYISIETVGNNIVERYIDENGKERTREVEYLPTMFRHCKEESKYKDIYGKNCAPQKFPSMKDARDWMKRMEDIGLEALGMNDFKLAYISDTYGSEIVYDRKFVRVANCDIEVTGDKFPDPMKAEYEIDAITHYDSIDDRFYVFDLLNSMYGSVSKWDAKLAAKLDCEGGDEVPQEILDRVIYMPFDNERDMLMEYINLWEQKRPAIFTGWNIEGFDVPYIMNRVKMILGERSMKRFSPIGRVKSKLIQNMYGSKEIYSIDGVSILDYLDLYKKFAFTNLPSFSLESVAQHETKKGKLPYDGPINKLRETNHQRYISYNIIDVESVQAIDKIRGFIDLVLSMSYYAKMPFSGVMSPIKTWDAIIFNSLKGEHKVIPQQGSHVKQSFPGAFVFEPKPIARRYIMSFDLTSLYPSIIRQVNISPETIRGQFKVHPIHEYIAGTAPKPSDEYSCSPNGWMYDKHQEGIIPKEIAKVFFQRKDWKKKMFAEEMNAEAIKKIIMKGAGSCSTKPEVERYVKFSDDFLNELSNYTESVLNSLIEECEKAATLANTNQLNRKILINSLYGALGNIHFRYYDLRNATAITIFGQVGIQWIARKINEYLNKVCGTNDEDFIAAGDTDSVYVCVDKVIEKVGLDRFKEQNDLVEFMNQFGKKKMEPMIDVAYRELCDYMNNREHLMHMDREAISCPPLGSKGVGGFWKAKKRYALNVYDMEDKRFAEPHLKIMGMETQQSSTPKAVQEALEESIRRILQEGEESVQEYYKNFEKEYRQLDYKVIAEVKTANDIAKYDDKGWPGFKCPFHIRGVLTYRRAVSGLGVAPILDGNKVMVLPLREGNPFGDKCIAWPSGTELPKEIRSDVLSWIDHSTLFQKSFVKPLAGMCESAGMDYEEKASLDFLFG
Assay: Counter-screen against bacteriophage T4 DNA polymerase
Format: biochemical
Conditions: for % inhibition T4 10' 2.5 / % inhibition T4 10' 5 / % inhibition T4 10' 10 / % inhibition T4 10' 20 / % inhibition T4 10' 40 / % inhibition T4 10' 80: read at 10'
Summary of the method: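 Purified T4 DNA polymerase, a B-family enzyme, served as the counter-screen enzyme. Compounds were tested in dose-response format and IC50 values were derived.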

Cc1cccc(-c2noc(C(=O)NNC(=O)C(Cl)(Cl)Cl)n2)c1 [KU0266208]
% inhibition T4 10' 2.5 (DRC-1, concentration 2.5): 1.001% | % inhibition T4 10' 5 (DRC-1, concentration 5): -2.3946% | % inhibition T4 10' 10 (DRC-1, concentration 10): 2.959% | % inhibition T4 10' 20 (DRC-1, concentration 20): 3.222% | % inhibition T4 10' 40 (DRC-1, concentration 40): 8.397% | % inhibition T4 10' 80 (DRC-1, concentration 80): 7.879% | % inhibition T4 70' 2.5 (DRC-1, read at 70', concentration 2.5): 1.555% | % inhibition T4 70' 5 (DRC-1, read at 70', concentration 5): -1.004% | % inhibition T4 70' 10 (DRC-1, read at 70', concentration 10): 1.596% | % inhibition T4 70' 20 (DRC-1, read at 70', concentration 20): 0.3208% | % inhibition T4 70' 40 (DRC-1, read at 70', concentration 40): 4.827% | % inhibition T4 70' 80 (DRC-1, read at 70', concentration 80): 4.906% | % inhibition T4 130' 2.5 (DRC-1, read at 130', concentration 2.5): -1.03% | % inhibition T4 130' 5 (DRC-1, read at 130', concentration 5): -3.982% | % inhibition T4 130' 10 (DRC-1, read at 130', concentration 10): -1.107% | % inhibition T4 130' 20 (DRC-1, read at 130', concentration 20): -3.27% | % inhibition T4 130' 40 (DRC-1, read at 130', concentration 40): 2.252% | % inhibition T4 130' 80 (DRC-1, read at 130', concentration 80): 3.008% | % inhibition T4 10' 2.5 (DRC-2, concentration 2.5): 7% | % inhibition T4 10' 5 (DRC-2, concentration 5): -1.26% | % inhibition T4 10' 10 (DRC-2, concentration 10): -5% | % inhibition T4 10' 20 (DRC-2, concentration 20): -8% | % inhibition T4 10' 40 (DRC-2, concentration 40): -12% | % inhibition T4 10' 80 (DRC-2, concentration 80): -4.34% | % inhibition T4 40' 2.5 (DRC-2, read at 40', concentration 2.5): 7% | % inhibition T4 40' 5 (DRC-2, read at 40', concentration 5): -1.26% | % inhibition T4 40' 10 (DRC-2, read at 40', concentration 10): -5% | % inhibition T4 40' 20 (DRC-2, read at 40', concentration 20): -8% | % inhibition T4 40' 40 (DRC-2, read at 40', concentration 40): -12% | % inhibition T4 40' 80 (DRC-2, read at 40', concentration 80): -4.34% | % inhibition T4 90' 2.5 (DRC-2, read at 90', concentration 2.5): 7% | % inhibition T4 90' 5 (DRC-2, read at 90', concentration 5): -1.21% | % inhibition T4 90' 10 (DRC-2, read at 90', concentration 10): -5% | % inhibition T4 90' 20 (DRC-2, read at 90', concentration 20): -8% | % inhibition T4 90' 40 (DRC-2, read at 90', concentration 40): -10% | % inhibition T4 90' 80 (DRC-2, read at 90', concentration 80): -1.44% | % inhibition T4 180' 2.5 (DRC-2, read at 180', concentration 2.5): 1.78% | % inhibition T4 180' 5 (DRC-2, read at 180', concentration 5): -5.37% | % inhibition T4 180' 10 (DRC-2, read at 180', concentration 10): -9% | % inhibition T4 180' 20 (DRC-2, read at 180', concentration 20): -11% | % inhibition T4 180' 40 (DRC-2, read at 180', concentration 40): -9% | % inhibition T4 180' 80 (DRC-2, read at 180', concentration 80): 0.715%

CCC(C)NC(=O)c1cc(NC(C)=O)cc2nc(C)ccc12 (stereo not shown) [KU0206314]
% inhibition T4 10' (DRC-2, 10', concentration 80): 42% | % inhibition T4 90' (DRC-2, concentration 2.5): 13% | % inhibition T4 90' (DRC-2, concentration 5): 13% | % inhibition T4 90' (DRC-2, concentration 80): 42%
